Measured values as given in ChEMBL document CHEMBL1156142, “COX, LOX and platelet aggregation inhibitory properties of Lauraceae neolignans” (Bioorg Med Chem Lett, 2009).

How the values were obtained:
[1] = Antiplatelet activity in rabbit platelets assessed as inhibition of arachidonic acid-induced platelet aggregation; assay type: functional, cell-based, Oryctolagus cuniculus
[2] = biological target: T1, Prostaglandin G/H synthase 1 (Ovis aries, UniProt P05979)
T1 sequence (P05979 whole entry): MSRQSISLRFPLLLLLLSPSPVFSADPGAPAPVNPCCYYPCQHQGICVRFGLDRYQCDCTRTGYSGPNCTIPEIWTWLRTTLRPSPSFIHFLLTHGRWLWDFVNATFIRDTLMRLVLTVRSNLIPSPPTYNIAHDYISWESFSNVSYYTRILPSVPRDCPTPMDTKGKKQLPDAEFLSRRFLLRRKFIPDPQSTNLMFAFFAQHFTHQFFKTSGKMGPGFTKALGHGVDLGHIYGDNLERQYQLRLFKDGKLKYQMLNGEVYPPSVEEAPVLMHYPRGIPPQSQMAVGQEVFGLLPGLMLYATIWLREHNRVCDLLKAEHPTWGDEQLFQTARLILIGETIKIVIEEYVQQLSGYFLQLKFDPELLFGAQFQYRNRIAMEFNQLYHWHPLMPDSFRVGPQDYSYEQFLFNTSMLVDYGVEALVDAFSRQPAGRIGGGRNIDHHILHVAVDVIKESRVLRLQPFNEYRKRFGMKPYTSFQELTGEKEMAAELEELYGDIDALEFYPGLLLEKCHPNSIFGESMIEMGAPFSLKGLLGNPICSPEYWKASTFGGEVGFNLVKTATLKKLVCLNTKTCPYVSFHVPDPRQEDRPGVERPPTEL
Description: Inhibition of ovine COX-1 assessed as inhibition of transformation of AA to PGH2 by EIA

[3] = Inhibition of potato LOX-5 assessed as inhibition of hydroperoxide production after 5 mins by EIA; parameters: species or system Solanum tuberosum
[4] = Antiplatelet activity in rabbit platelets assessed as inhibition of adenosin 5'-diphosphate-induced platelet aggregation; assay type: functional, cell-based; details: Oryctolagus cuniculus
[5] = Antiplatelet activity in rabbit platelets assessed as inhibition of platelet activating factor-induced platelet aggregation; assay type: functional, cell-based, Oryctolagus cuniculus
Ovis aries = species on record: Ovis aries; assay: Selectivity ratio of IC50 for ovine COX-1 to IC50 for ovine COX-2
[6] = Oryctolagus cuniculus, Platelet

SMILES | IC50 [1, 6] | IC50 [2] | IC50 [3] | IC50 [4] | IC50 [5, 6] | Ratio IC50 (Ovis aries) | IC50 ([1]; platelet) | IC50 ([5]; platelet)
C=CCC1=C[C@@]2(OC)[C@H](C)[C@@H](c3ccc(OC)c(OC)c3)[C@H](C1=O)[C@@H]2O [KADSURENIN C] | 54.6 µM | 38.7 µM | 117 µM | > 999 µM | 2.33 µM |  |  | 
C=CCC1=C[C@]2(OC)C(=CC1=O)O[C@@H](c1ccc(OC)c(OC)c1)[C@H]2C [(+)-DENUDATIN B] | 58.3 µM | 88.6 µM | 0.199 µM | 148 µM | 75.6 µM | 15.6 |  | 
C/C=C/c1cc(OC)c2c(c1)[C@@H](C)[C@H](c1ccc3c(c1)OCO3)O2 [LICARINE B] | 326 µM | 289 µM | 5.55 µM | 56.7 µM | 565 µM | 157 |  | 
COc1cc(-c2oc3c(OC)cc(C=O)cc3c2C)cc(OC)c1OC [OCOPHYLLALS B] | 425 µM | 102 µM | 8.02 µM | 98.3 µM | 847 µM | 412 |  | 
C=CCC1=C[C@]2(OC)C(=O)[C@@](OC)(C1=O)[C@H](c1cc(OC)c3c(c1)OCO3)[C@H]2C [CINERIN A] | 75.6 µM | 165 µM | 45.6 µM | 88.9 µM |  |  |  | 
O=C(O)/C=C/c1ccc(O)c(O)c1 |  |  |  |  |  | 3.74 |  | 
C=CCc1cc(OC)c2oc(-c3ccc4c(c3)OCO4)cc2c1 [NEOLIGNAN 9-NOR-7,8-DEHYDRO-ISOLICARIN B] | 426 µM | 349 µM | 106 µM | > 999 µM | 460 µM | 329 |  | 
C=CCC1=C[C@@]2(OC)[C@@H](C)[C@H](c3cc(OC)c(OC)c(OC)c3)[C@](OC)([C@H]1O)[C@H]2O [NECTAMAZIN C] | 21.6 µM | 74.6 µM | 12.8 µM | > 999 µM | 3.78 µM |  |  | 
C=CCC1=C[C@]2(OC)C(=O)C([C@@H]1O)[C@H](c1cc(OC)c(OC)c(OC)c1)[C@H]2C [MACROPHYLLIN B] | 23.2 µM | 216 µM | 18.9 µM | 121 µM | 6.79 µM |  |  | 
C=CCC1=C[C@@]2(OC)[C@H](C)[C@@H](c3cc(OC)c4c(c3)OCO4)[C@H](C1=O)[C@@H]2O [CINERIN B] | 42.8 µM | 32.5 µM | 146 µM | > 999 µM | 1.51 µM |  |  | 
C=CCC1=C[C@@]2(OC)[C@H](C)[C@@H](c3ccc4c(c3)OCO4)[C@H](C1=O)[C@H]2O [OCOPHYLOL A] | 45.6 µM | 88.6 µM | 256 µM | 636 µM | 3.08 µM |  |  | 
C[C@@H]1C(=O)O[C@H]2[C@H](O)[C@@]34[C@H]5C[C@@H](C(C)(C)C)[C@]36[C@@H](OC(=O)[C@@H]6O)O[C@@]4(C(=O)O5)[C@@]12O [GINKOLIDE B] | 75.6 µM |  |  | > 999 µM | 0.925 µM |  |  | 
C=CCc1cc2c(cc1O)O[C@H](c1ccc3c(c1)OCO3)[C@H]2C [LILIFLOL A] | 145 µM | 179 µM | 1.81 µM | 124 µM | 18.4 µM | 10.2 |  | 
C=CCC1=C[C@]2(OC)[C@@H](O)[C@@](OC)(C1=O)[C@@H](c1cc(OC)c(OC)c(OC)c1)[C@@H]2C (stereo in doubt; 8) [NECTAMAZIN B] | 68.7 µM | 72.2 µM | 156 µM | > 999 µM | 1.37 µM |  |  | 
C=CCC1=C[C@]2(OC)C(=O)C(C1=O)[C@H](c1cc(OC)c(OC)c(OC)c1)[C@H]2C [4'-OXO-MACROPHYLLIN B] | 78.9 µM | 356 µM | 92.5 µM | 521 µM | 7.47 µM |  |  | 
C=CCC1=C[C@]2(OC)[C@@H](O)[C@@](OC)(C1=O)[C@@H](c1cc(OC)c(OC)c(OC)c1)[C@@H]2C (stereo in doubt; 9) [NECTAMAZIN B] |  | 152 µM | 42.4 µM |  |  |  | 43.4 µM | 1.72 µM
C=CCC1=C[C@]2(OC)[C@H](C)[C@@H](c3cc(OC)c4c(c3)OCO4)[C@](OC)(C1=O)[C@H]2O [CINERIN C] | 85.8 µM | 28.3 µM | 136 µM | > 999 µM | 1.09 µM |  |  | 
Cc1ccc(-c2cc(C(F)(F)F)nn2-c2ccc(S(N)(=O)=O)cc2)cc1 [CELECOXIB] |  |  | 73.4 µM |  |  |  |  | 
C=CCC1=C[C@@]2(OC)C(=CC1=O)O[C@H](c1ccc(OC)c(OC)c1)[C@H]2C [KADSURENONE] | 5.61 µM | 25.6 µM | 0.104 µM | 38.1 µM | 0.153 µM | 12.6 |  | 
COc1cc(C=O)cc2c(C)c(-c3ccc4c(c3)OCO4)oc12 [OCOPHYLLALS A] | 568 µM | 123 µM | 7.31 µM | 102 µM | > 999 µM | 436 |  | 
C/C=C/c1cc(OC)c2c(c1)[C@H](C)[C@@H](c1ccc3c(c1)OCO3)O2 [(-)-LICARIN B] | 290 µM | 366 µM | 14.3 µM | 54.6 µM | 488 µM | 426 |  | 
C/C=C/c1cc(OC)c2c(c1)[C@@H](C)[C@H](c1ccc(O)c(OC)c1)O2 [LICARINE A] | 556 µM | 245 µM | 3.69 µM | 165 µM | > 999 µM | 12.5 |  | 
CC(=O)Oc1ccccc1C(=O)O [ASPIRIN] | 5.33 µM |  | 0.162 µM | 545 µM | 10.3 µM |  |  | 
C/C=C/c1cc(OC)c2c(c1)[C@H](C)[C@@H](c1ccc(O)c(OC)c1)O2 [LICARIN A] | 489 µM | 312 µM | 9.73 µM | 112 µM | > 999 µM | 35.5 |  | 
C=CCC1=C[C@@]2(OC)[C@H](C)[C@@H](c3ccc(OC)c(OC)c3)[C@H](C1=O)[C@H]2O [OCOPHYLOL B] | 38.8 µM | 94.9 µM | 189 µM | 725 µM | 3.03 µM |  |  | 
C=CCC1=C[C@@]2(OC)C(=O)[C@](OC)([C@H](c3cc(OC)c4c(c3)OCO4)[C@H]2C)[C@H]1O [CINERIN D] | 25.6 µM | 188 µM | 8.84 µM |  | 6.63 µM |  |  | 
C=CCC1=C[C@@]2(OC)[C@H](C)[C@@H](c3cc(OC)c(OC)c(OC)c3)[C@H](C1=O)[C@H]2O [OCOPHYLOL C] | 48.6 µM | 72.1 µM | 176 µM | > 999 µM | 2.34 µM |  |  | 
C=CCC1=C[C@@]2(OC)C(=CC1=O)O[C@H](c1cc(OC)c(OC)c(OC)c1)[C@H]2C [MIRANDIN A] | 38.7 µM | 77.9 µM | 0.62 µM |  | 3.28 µM |  |  | 
C/C=C/c1cc(OC)c2c(c1)[C@@H](C)[C@H](c1ccc(OC)c(OC)c1)O2 [ACUMINATIN] | 222 µM | 223 µM | 7.75 µM | 75.6 µM | 65.3 µM | 146 |  | 
